# Experimental data as given in patent US20240191187A1, “MEDIA AND METHODS FOR GROWING MAMMARY ORGANOIDS” (STEMCELL TECHNOLOGIES CANADA INC., priority 2021, published 2024).
# “Also recorded” adds a separate entry of the source.
# Legend:
# [1] = tested on: human mammary epithelial cells; test: Human mammary organoid cell lineage balance by flow cytometry; conditions: for cell lineage balance, ERBB receptor family ligands: ~10-50 ng/mL AREG, ~10-50 ng/mL EGF, ~50-100 ng/mL NRG1; for cell lineage balance across multiple experiments, ERBB ligands: normalized to control lacking ERBB modulators, mean of 2 experiments; for cell lineage balance, inhibitors of TGFβ signaling: ~10 μM SB431542, ~200-500 nM A77-01, ~5-25 RepSox
# Method: (§4) Cryopreserved pellet A and pellet B were dissociated into a single cell suspension by treatment with 0.25% Trypsin-EDTA for 5 minutes at 37° C. (with intermittent trituration) and then centrifuged at (300 g for 5 minutes). The supernatant was discarded and the pellet was resuspended in a 100 μg/ml DNase solution for 1 minute at room temperature. The resulting cells were passed through a 37 μm strainer to obtain the single cell suspension.
# Each well received between 0.5-1 mL of any one of the various culture media described herein.
# The plated single cell suspension of mammary epithelial cells formed into organoids that were passaged approximately every 7-days, with 2-3 full medium changes during such 7-day period. To passage the organoids, the Matrigel domes were broken apart by pipetting in pre-warmed 0.25% Trypsin-EDTA, incubating at 37° C. for ˜ 5-15 minutes and pipetting again. The trypsinization reaction was inactivated by washing in an equal volume of Hanks Balanced Salt Solution supplemented with 2% FBS. Depending on the density and size of organoids a 1:2-1:5 split was performed, with the cells seeded as domes, as described above. Alternatively, cells would be strained through a 37 μm strainer to obtain the single cell suspension and seeded in Matrigel domes as described above.
# Organoids were formed in media comprising either BMP signaling activator, ˜50 ng/mL BMP2 or ˜50 ng/mL BMP4, and in media comprising either BMP signaling inhibitor, ˜25-200 ng/mL NOGGIN or ˜10-100 nM LDN193189. Just prior to the first passage, the formed organoids were dissociated and the cell lineage balance was analyzed by flow cytometry.
# Organoids were formed in media comprising either no ligand of an ERBB receptor family member, or comprising ˜10-50 ng/mL amphiregulin (AREG), ˜10-50 ng/mL epidermal growth factor (EGF), or ˜50-100 ng/mL heregulin/neuregulin 1 (NRG1). Just prior to the first passage, the formed organoids were dissociated and the cell lineage balance was analyzed by flow cytometry.
# Just prior to the first passage, the formed organoids were dissociated and the cell lineage balance was analyzed by flow cytometry.
# [2] = tested on: estrogen receptor localization in human mammary organoids; test: ER localization in human mammary organoids after transient TGFβ signaling inhibitor exposure (confocal); format: cell-based; conditions: transient exposure after organoids have formed
# Method: (§1) In panel A) (human) and in panel B) (mouse) organoids were formed in respective organoid media of this disclosure, and were then transiently exposed to different inhibitors of TGFβ signaling. Organoids were imaged by confocal microscopy after staining for K8, K14, ER and the nuclear stain DAPI.
# (§2) Organoids were recovered from Matrigel by incubating in Corning Cell Recovery Solution for 1 hour with rocking on ice. Organoids were then fixed in 4% paraformaldehyde (PFA) at room temperature for 1 hour and stored in PBS at 4° C. After PFA fixation, antigen retrieval was performed by boiling the organoids in sodium citrate buffer for 20 minutes at 96° C. Organoids were permeabilized in a 0.5% Triton-X-100 solution in PBS overnight at room temperature. Samples were blocked by incubating overnight in a solution of 5% goat serum.
# (§3) Following fixation and permeabilization, the organoids were incubated sequentially in primary antibody and secondary antibody solutions (as summarized in the table below) overnight at room temperature. Samples were counterstained in a 2 μg/ml DAPI solution for 20 minutes and dehydrated through stepwise incubations in solutions with increasing methanol concentrations (50%, 80%, then 100% methanol). […]
# [3] = tested on: estrogen receptor localization in mouse mammary organoids; test: ER localization in mouse mammary organoids after transient TGFβ signaling inhibitor exposure (confocal); format: cell-based; conditions: transient exposure after organoids have formed
# Method: as §1, §2, §3
# [4] = tested on: human mammary epithelial cells; test: Total cell count among formed human mammary organoids; format: cell-based; conditions: vs control with no modulation of ERBB signaling
# Method: as §4
# Each well received between 0.5-1 mL of any one of the various culture media described herein. […]
# The effects of modulating signaling through an ERBB receptor family member were analyzed across multiple experiments in terms of total cell count among formed organoids (FIG. 13A) and the lineage balance of the cells among formed organoids (FIG. 13B).
# [5] = tested on: human mammary epithelial cells; test: Human mammary organoids stained for K8/K14, confocal microscopy; format: cell-based; conditions: Day 17 organoids; 50 ng/mL NRG3, 100 ng/mL AMH, 50 ng/mL GM-CSF
# Method: as §2
# as §3, with “methanol). Organoids were embedded in a solution of 2:1 Benzyl Benzoate-Benzyl alcohol (BABB), transferred to Ibidi glass bottom chamber slides and imaged using a Leica SP8 confocal laser scanning microscope.” for “methanol).”
# The effects of modulating signaling through BMP were analyzed across multiple experiments in terms of total cell count among formed organoids (FIG. 9A) and the lineage balance of the cells among formed organoids (FIG. 9B). […]
# [6] = tested on: human mammary epithelial cells; test: Human mammary organoid formation, brightfield microscopy; format: cell-based; conditions: media comprising NOGGIN or LDN193189 alone vs both; successive passages
# Method: Fragments of human mammary epithelial cells were isolated from tissue samples obtained from academic collaborators, as follows. Resected tissue samples were minced in a petri dish using a scalpel to cut in a cross-hatched pattern. The minced tissue samples were placed in a dissociation flask in standard culture medium supplemented with BSA, insulin, collagenase and hyaluronidase. The flask was gently shaken overnight on an orbital shaker placed in a 37° C. tissue incubator. The following morning the floating layer of fat was removed by pipette, and the remaining liquid was transferred to a tube and briefly centrifuged at low rpm (˜80 g for 30 seconds). The pellet (A pellet) was set aside and the supernatant was further centrifuged for an incrementally longer period of time and at an incrementally higher rpm (˜200 g for 4 minutes). The pellet (B pellet) was set aside and the supernatant was further centrifuged for a still incrementally longer period of time and at an incrementally higher rpm (˜450 g for 5 minutes).
# Cryopreserved pellet A and pellet B were dissociated into a single cell suspension by treatment with 0.25% Trypsin-EDTA for 5 minutes at 37° C. (with intermittent trituration) and then centrifuged at (300 g for 5 minutes). The supernatant was discarded and the pellet was resuspended in a 100 μg/ml DNase solution for 1 minute at room temperature. […]
molecule,measurement,setting,value
heregulin/neuregulin 1 [NRG1],"cell lineage balance, ERBB receptor family ligands",[1]; just prior to first passage,a minor or no effect on cell lineage balance
same,"cell lineage balance across multiple experiments, ERBB ligands",[1],a higher percentage of luminal cells and a reduction in the percentage of basal cells
Cc1cccc(-c2[nH]ncc2-c2ccc3ncccc3n2)n1 [RepSox],"cell lineage balance, inhibitors of TGFβ signaling",[1],reduce the proportion of stromal cells while either maintaining or improving the proportions of luminal cells
same,"localization of estrogen receptor, human organoids",[2],promoted the localization of estrogen receptor within nuclei
same,"localization of estrogen receptor, mouse organoids",[3],promoted the localization of estrogen receptor within nuclei
"epidermal growth factor [EGF, ligand of ERBB1]","cell lineage balance, ERBB receptor family ligands",[1]; just prior to first passage,significantly reduce the number of luminal cells while significantly increasing the number of basal cells
same,"cell lineage balance across multiple experiments, ERBB ligands",[1],the greatest reduction in luminal cells and the greatest increase in basal cells
same,"total cell count among formed organoids, ERBB modulators",[4],highest mitogenic activity
TGFβ1: ligand of a TGFβ receptor,"cell lineage balance, TGFβ receptor ligands","[1]; ~50 ng/mL, just prior to first passage","an overall negative impact on the percentage of luminal and basal cells, while greatly increasing the proportion of stromal cells"
Granulocyte-macrophage Colony Stimulating Factor [GM-CSF],lineage restriction of organoids formed (K8/K14 staining),[5],bias the culture of mammary epithelial cells to form basal-restricted organoids; also recorded: Basal-restricted organoids were formed
"C#Cc1cccc(Nc2ncnc3cc(OCCOC)c(OCCOC)cc23)c1 [Erlotinib, reference compound]","cell lineage balance, EGF receptor inhibition","[1]; ~100 nM Gefitinib and ~100 nM Erlotinib given together, two donor samples",negligible or no effect on cell lineage balance
"c1ccc2c(-c3cnn4cc(-c5ccc(N6CCNCC6)cc5)cnc34)ccnc2c1 [LDN193189, reference compound]","cell lineage balance, BMP signaling modulators","[1]; just prior to first passage, ~50 ng/mL BMP2 or BMP4, ~25-200 ng/mL NOGGIN or ~10-100 nM LDN193189",decreased the number of basal cells while increasing the number of luminal cells
same,"formation of luminal organoids, single vs dual BMP signaling inhibitor",[6],appeared sufficient to bias formation of luminal organoids
Neuregulin 3 [NRG3],lineage restriction of organoids formed (K8/K14 staining),[5],bias the culture of mammary epithelial cells to form luminal-restricted organoids; also recorded: Luminal-restricted organoids were formed
NC(=O)c1ccc(-c2nc(-c3ccc4c(c3)OCO4)c(-c3ccccn3)[nH]2)cc1 [SB431542],"cell lineage balance, inhibitors of TGFβ signaling",[1],reduce the proportion of stromal cells while either maintaining or improving the proportions of luminal cells
same,"localization of estrogen receptor, human organoids",[2],promoted the localization of estrogen receptor within nuclei
same,"localization of estrogen receptor, mouse organoids",[3],promoted the localization of estrogen receptor within nuclei
"Cc1cccc(-c2[nH]ncc2-c2ccnc3ccccc23)n1 [A77-01, reference compound]","cell lineage balance, inhibitors of TGFβ signaling",[1],reduce the proportion of stromal cells while either maintaining or improving the proportions of luminal cells
